Results on 27 compounds are retold here after ChEMBL document CHEMBL1150670, “Anti-HIV agents derived from the ent-kaurane diterpenoid linearol” (J Nat Prod, 2002).

The structures appear in SMILES notation. ≈ marks a conversion by molar mass, not a printed value. Calls of active or inactive are those of the source. The calls are words filed in the database; no cut-off is given here. A value given as a limit tells only on which side of the number the result lay.

The test system of data set [1] is Human immunodeficiency virus 1. The data set can be described thus: Antiviral activity against HIV1 3B replication in human H9 cells assessed as inhibition of p24 antigen production after 4 days by ELISA. The data set is classed as functional, organism-based. The conditions noted are these: for EC50: Human immunodeficiency virus 1, 3B, H9, 96 h. In general terms: An ELISA detects its analyte on a solid surface through an enzyme-linked reagent.

The next data set relates to H9. The data set can be described thus: Cytotoxicity against human H9 cells by Coulter counting analysis. The data set is classed as cell-based.
Data set [2] in a line: Therapeutic index, ratio of IC50 for human H9 cells to EC50 for HIV1 3B replication in human H9 cells. The data set is classed as cell-based. The settings on record: read-out: Ratio IC50/EC50.

With `C=C1C[C@@]23C[C@@H]1CC[C@H]2[C@]1(C)CC[C@@H](OC(=O)c2cccc([N+](=O)[O-])c2)[C@](C)(COC(C)=O)[C@@H]1C[C@@H]3OC(=O)c1cccc([N+](=O)[O-])c1`, the outcome in data set [1] was inactive. This compound also gave a half-maximal inhibitory concentration (IC50) in the data set on H9 of 21.4 µg/mL (≈ 32.4 µM).
`C=C1C[C@@]23C[C@@H]1CC[C@H]2[C@]1(C)CC[C@@H](OC(=O)CC)[C@](C)(COC(C)=O)[C@@H]1C[C@@H]3O`: the outcome in data set [1] was inactive. The IC50 in the data set on H9 came out at 22.2 µg/mL (≈ 53 µM).
With `C=C1C[C@@]23C[C@@H]1CC[C@H]2[C@]1(C)CC[C@@H](OC(=O)c2ccc([N+](=O)[O-])cc2)[C@](C)(COC(C)=O)[C@@H]1C[C@@H]3OC(=O)c1ccc([N+](=O)[O-])cc1`, the outcome in data set [1] was inactive. The IC50 in the data set on H9 was greater than 100 µg/mL.
As to `C=C1C[C@@]23C[C@@H]1CC[C@H]2[C@]1(C)CC[C@@H](OC(=O)c2ccc(C#N)cc2)[C@](C)(COC(C)=O)[C@@H]1C[C@@H]3OC(=O)c1ccc(C#N)cc1`, the outcome in data set [1] was inactive. This compound also had an IC50 in the data set with H9 greater than 100 µg/mL.
For `C=C1C[C@@]23C[C@@H]1CC[C@H]2[C@]1(C)CC[C@@H](OC(=O)c2ccc(OC)cc2)[C@](C)(COC(C)=O)[C@@H]1C[C@@H]3OC(=O)c1ccc(OC)cc1`, the concentration giving a half-maximal response (EC50) in data set [1] was less than 0.1 µg/mL. Moreover, in data set [2], the selectivity ratio is greater than 19.2. Besides, the IC50 with H9 was 1.9 µg/mL (≈ 3.01 µM).
On to `C=C1C[C@@]23C[C@@H]1CC[C@H]2[C@]1(C)CC[C@@H](OC(=O)c2ccc(F)cc2)[C@](C)(COC(C)=O)[C@@H]1C[C@@H]3O`, for which, in data set [1], the result was inactive. Besides, the IC50 in the data set on H9 is 57.7 µg/mL (≈ 119 µM).
`C=C1C[C@@]23C[C@@H]1CC[C@H]2[C@]1(C)CC[C@@H](OC(=O)CC)[C@](C)(COC(C)=O)[C@@H]1C[C@@H]3OC(=O)CC`: the concentration giving a half-maximal response (EC50) in data set [1] stood at 2.63 µg/mL (≈ 5.54 µM). Further, the selectivity ratio in data set [2] was 6.1. In the data set with H9, this compound displayed a 50% inhibitory concentration (IC50) of 16 µg/mL (≈ 33.7 µM).
Taken in the same sequence, the figures for `C=C1C[C@@]23C[C@@H]1CC[C@H]2[C@]1(C)CC[C@@H](OC(=O)c2ccco2)[C@](C)(COC(C)=O)[C@@H]1C[C@@H]3OC(=O)c1ccco1` were 3.11 µg/mL (≈ 5.65 µM), 3.49 and 10.8 µg/mL (≈ 19.6 µM).
`CC(=O)OC[C@]1(C)[C@@H]2C[C@H](OC(C)=O)[C@]34C[C@H](CC[C@H]3[C@]2(C)CC[C@H]1OC(C)=O)[C@@]1(CO1)C4`: in data set [1], the EC50 is 0.13 µg/mL (≈ 0.281 µM). Further, in data set [2], the selectivity ratio was 163. The concentration for half-maximal inhibition (IC50) in the data set with H9 came to 20.6 µg/mL (≈ 44.5 µM).
Regarding `C=C1C[C@@]23C[C@@H]1CC[C@H]2[C@]1(C)CC[C@@H](OC(=O)c2ccc(Cl)cc2)[C@](C)(COC(C)=O)[C@@H]1C[C@@H]3O`, in data set [1], the outcome was inactive. Moreover, the IC50 with H9 was 54 µg/mL (≈ 108 µM).
With `C=C1C[C@@]23C[C@@H]1CC[C@H]2[C@]1(C)CC[C@@H](OC(=O)c2ccc4c(c2)OCO4)[C@](C)(COC(C)=O)[C@@H]1C[C@@H]3O`, the result in data set [1] was inactive. The same compound displayed an IC50 in the data set with H9 of 5.3 µg/mL (≈ 10.4 µM).
For `C=C1C[C@@]23C[C@@H]1CC[C@H]2[C@]1(C)CC[C@@H](OC(=O)c2ccccc2OC)[C@](C)(COC(C)=O)[C@@H]1C[C@@H]3OC(=O)c1ccccc1OC`, in that order: “inactive” and 6 µg/mL (≈ 9.51 µM).
Compound `CC(=O)OC[C@]1(C)[C@@H]2C[C@H](O)[C@]34C[C@H](CC[C@H]3[C@]2(C)CC[C@H]1O)[C@@]1(CO1)C4` returned an IC50 in the data set with H9 greater than 100 µg/mL.
Consider `C=C1C[C@@]23C[C@@H]1CC[C@H]2[C@]1(C)CC[C@@H](O)[C@](C)(COC(C)=O)[C@@H]1C[C@@H]3O` [LINEAROL], for which the result in data set [1] was inactive. This compound also gave an IC50 with H9 of 56.5 µg/mL (≈ 156 µM).
As to `CC(=O)OC[C@]1(C)[C@@H]2C[C@H](O)[C@@]34CC(=O)[C@@H](CC[C@H]3[C@]2(C)CC[C@H]1O)C4`, in data set [1], the outcome was inactive. Moreover, the IC50 in the data set with H9 was greater than 100 µg/mL.
For the compound `C=C1C[C@@]23C[C@@H]1CC[C@H]2[C@]1(C)CC[C@@H](OC(=O)c2ccccc2OC)[C@](C)(COC(C)=O)[C@@H]1C[C@@H]3O`, the outcome in data set [1] was inactive. Half-maximal inhibition with H9 (IC50) required 5.4 µg/mL (≈ 10.9 µM).
Take `C=C1C[C@@]23C[C@@H]1CC[C@H]2[C@]1(C)CC[C@@H](OC(=O)c2ccc(SC)cc2)[C@](C)(COC(C)=O)[C@@H]1C[C@@H]3OC(=O)c1ccc(SC)cc1`: the outcome in data set [1] was inactive. The IC50 in the data set with H9 was 59.8 µg/mL (≈ 90.2 µM).
`C=C1C[C@@]23C[C@@H]1CC[C@H]2[C@]1(C)CC[C@@H](OC(=O)c2ccc(C)cc2)[C@](C)(COC(C)=O)[C@@H]1C[C@@H]3OC(=O)c1ccc(C)cc1`: the concentration giving a half-maximal response (EC50) in data set [1] was determined as 1.05 µg/mL (≈ 1.75 µM). The selectivity ratio in data set [2] was found to be 50.1. The compound further showed an IC50 with H9 of 52.5 µg/mL (≈ 87.7 µM).
On to `C=C1C[C@@]23C[C@@H]1CC[C@H]2[C@]1(C)CC[C@@H](OC(=O)c2ccccc2)[C@](C)(COC(C)=O)[C@@H]1C[C@@H]3O`, for which the outcome in data set [1] was inactive. Also, the IC50 with H9 was 1.8 µg/mL (≈ 3.86 µM).
Turning to `C=C1C[C@@]23C[C@@H]1CC[C@H]2[C@]1(C)CC[C@@H](OC(=O)c2ccc(SC)cc2)[C@](C)(COC(C)=O)[C@@H]1C[C@@H]3O`, the result in data set [1] was inactive. Moreover, it took 5.3 µg/mL (≈ 10.3 µM) to reach half-maximal inhibition in the data set with H9 (IC50).
`C=C1C[C@@]23C[C@@H]1CC[C@H]2[C@]1(C)CC[C@@H](OC(=O)c2cnccn2)[C@](C)(COC(C)=O)[C@@H]1C[C@@H]3OC(=O)c1cnccn1`: the result in data set [1] was inactive. The same compound gave an IC50 in the data set on H9 of 5.6 µg/mL (≈ 9.74 µM).
`C=C1C[C@@]23C[C@@H]1CC[C@H]2[C@]1(C)CC[C@@H](OC(=O)c2ccccc2)[C@](C)(COC(C)=O)[C@@H]1C[C@@H]3OC(=O)c1ccccc1`: the result in data set [1] was inactive. In the data set with H9, this compound gave an IC50 of 2.2 µg/mL (≈ 3.85 µM).
Consider `C=C1C[C@@]23C[C@@H]1CC[C@H]2[C@]1(C)CC[C@@H](OC(=O)c2ccc4c(c2)OCO4)[C@](C)(COC(C)=O)[C@@H]1C[C@@H]3OC(=O)c1ccc2c(c1)OCO2`, for which, in data set [1], the EC50 came to 0.27 µg/mL (≈ 0.41 µM). Besides, the selectivity ratio in data set [2] turned out to be 184. In the data set on H9, this compound returned an IC50 of 50.6 µg/mL (≈ 76.8 µM).
As for `C=C1C[C@@]23C[C@@H]1CC[C@H]2[C@]1(C)CC[C@@H](OC(=O)c2ccc(Cl)cc2)[C@](C)(COC(C)=O)[C@@H]1C[C@@H]3OC(=O)c1ccc(Cl)cc1`, in data set [1], the outcome was inactive. For the same compound, the IC50 with H9 turned out to be 60.1 µg/mL (≈ 94 µM).
Regarding `C=C1C[C@@]23C[C@@H]1CC[C@H]2[C@]1(C)CC[C@@H](OC(=O)c2ccc(OC)cc2)[C@](C)(COC(C)=O)[C@@H]1C[C@@H]3O`, in data set [1], the outcome was inactive. Besides, in the data set on H9, the IC50 stood at 2 µg/mL (≈ 4.03 µM).
For `C=C1C[C@@]23C[C@@H]1CC[C@H]2[C@]1(C)CC[C@@H](OC(=O)c2ccc(F)cc2)[C@](C)(COC(C)=O)[C@@H]1C[C@@H]3OC(=O)c1ccc(F)cc1`, in data set [1], the result was inactive. The compound also had an IC50 in the data set on H9 of 41.1 µg/mL (≈ 67.7 µM).
`CC(=O)O[C@@H]1CC[C@]2(C)[C@@H](C[C@H](O)[C@]34C[C@H](CC[C@@H]23)[C@@]2(CO2)C4)[C@@]1(C)CO`: the outcome in data set [1] was inactive. The same compound gave an IC50 with H9 greater than 100 µg/mL.

For orientation: IC50 means the midpoint of a concentration-inhibition curve. A low value points to greater potency in that assay. The term EC50 denotes the concentration giving half of the maximal effect.
